What all share (assay type): biochemical
One test concerns the target T1, human leukocyte elastase (Homo sapiens, UniProt P08246).
T1 construct: purchased Elastin Products (Pacific, Mo.)
T1 sequence (P08246 30-247 limits assumed): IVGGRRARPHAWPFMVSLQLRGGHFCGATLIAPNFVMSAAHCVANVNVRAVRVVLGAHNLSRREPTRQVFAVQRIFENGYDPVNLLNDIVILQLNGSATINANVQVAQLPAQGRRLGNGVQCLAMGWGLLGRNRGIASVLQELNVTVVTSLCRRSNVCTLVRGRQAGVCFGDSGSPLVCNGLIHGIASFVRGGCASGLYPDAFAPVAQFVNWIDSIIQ
The experiment in a line: In vitro inhibition of purified enzymes: elastase, hydrolysis of N-succinyl-Ala-Ala-Pro-Val-p-nitroanilide. The source says:
(§1) Reagents: All buffer salts were obtained from Sigma Chemical Company (St. Louis, Mo.), and were of the highest purity available. The enzyme substrates, N-benzoyl-Phe-Val-Arg-p-nitroaniide (Sigma B7632) N-benzoyl-Ile-Glu-Gly-Arg-p-nitroanilide hydrochloride (Sigma B2291), N-p-Tosyl-Gly-Pro-Lys-p-nitroanilide (Sigma T6140), N-succinyl-Ala-Ala-Pro-Phe-p-nitroanilide (Sigma S7388) and N-CBZ-Val-Gly-Arg-p-nitroanilide (Sigma C7271) were obtained from Sigma. N-succinyl-Ala-Ala-Pro-Arg-p-nitroanilide (BACHEM L-1720) and N-succinyl-Ala-Ala-Pro-Val-p-nitroanilide (BACHEM L-1770) were obtained from BACHEM (King of Prussia, Pa.).
(§2) Human α-thrombin, human factor Xa and human plasmin were obtained from Enzyme Research Laboratories (South Bend, Id.). Bovine α-chymotrypsin (Sigma C4129), bovine trypsin (Sigma T8642) and human kidney cell urokinase (Sigma U5004) were obtained from Sigma. Human leukocyte elastase was obtained from Elastin Products (Pacific, Mo.).
(§3) Ki Determinations: All assays are based on the ability of the test compound to inhibit the enzyme catalyzed hydrolysis of a peptide p-nitroanilide substrate. In atypical Ki determination, substrate is prepared in DMSO, and diluted into an assay buffer consisting of 50 mM HEPES, 200 mM NaCl, pH 7.5. The final concentrations for each of the substrates is listed below. In general, substrate concentrations are lower than the experimentally determined value for Km. Test compounds are prepared as a 1.0 mg/ml solution in DMSO. Dilutions are prepared in DMSO yielding 8 final concentrations encompassing a 200 fold concentration range. Enzyme solutions are prepared at the concentrations listed below in assay buffer.
(§4) In a typical Ki determination, into each well of a 96 well plate is pipetted 280 mL of substrate solution, 10 mL of test compound solution, and the plate allowed to thermally equilibrate at 37° C. in a Molecular Devices plate reader for>15 minutes. Reactions were initiated by the addition of a […] aliquot of enzyme and the absorbance increase at 405 nm is recorded for 15 minutes. Data corresponding to less than 10% of the total substrate hydrolysis were used in the calculations. The ratio of the velocity (rate of change in absorbance as a function of time) for a sample containing no test compound is divided by the velocity of a sample containing test compound, and is plotted as a function of test compound concentration. The data are fit to a linear regression, and the value of the slope of the line calculated. The inverse of the slope is the experimentally determined Ki value.
Elastase: Elastase activity was assessed as the ability to hydrolyze N-succinyl-Ala-Ala-Pro-Val-p-nitroanilide. Substrate solutions were prepared at a concentration of 19 mM (19 mM<<Km=89 mM) in assay buffer. Final DMSO concentration was 4.3%. Purified human leukocyte elastase was diluted into assay buffer to a concentration of 750 nM. Final reagent concentrations were: [Elastase]=25 nM, [N-succinyl-Ala-Ala-Pro-Val-p-nitroanilide]=19 mM.

A further test has as its target T2, bovine trypsin (Bos taurus, UniProt P00760).
T2 construct: Purified bovine trypsin was diluted into assay buffer; purchased Sigma T8642
T2 sequence (P00760 24-246): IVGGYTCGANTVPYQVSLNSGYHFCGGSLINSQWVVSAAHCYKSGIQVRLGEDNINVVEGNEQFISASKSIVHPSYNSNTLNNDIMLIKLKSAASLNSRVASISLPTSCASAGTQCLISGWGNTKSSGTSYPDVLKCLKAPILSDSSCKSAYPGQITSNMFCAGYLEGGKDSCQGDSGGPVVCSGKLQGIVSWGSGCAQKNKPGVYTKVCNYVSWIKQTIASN
The test can be described thus: In vitro inhibition of purified enzymes: trypsin, hydrolysis of N-benzoyl-Phe-Val-Arg-p-nitroanilide.
Source text: as §1, §2, §3, §4
Trypsin: Trypsin activity was assessed as the ability to hydrolyze N-benzoyl-Phe-Val-Arg-p-nitroanilide. […] Final DMSO concentration was 4.3%. Purified bovine trypsin was diluted into assay buffer to a concentration of 120 nM. Final reagent concentrations were: [Trypsin]=4 nM, [N-benzoyl-Phe-Val-Arg-p-nitroanilide]=13 mM.

The target of the next test is T3, human factor Xa (Homo sapiens, UniProt P00742).
T3 construct: purchased Enzyme Research Laboratories (South Bend)
The test can be described thus: In vitro inhibition of purified enzymes: Factor X [FXa], hydrolysis of N-benzoyl-Ile-Glu-Gly-Arg-p-nitroanilide. To be noted: 37° C., pH 7.5.
Source text: as §1, §2, §3, §4
Factor X [FXa]: FXa activity was assessed as the ability to hydrolyze the substrate N-benzoyl-Ile-Glu-Gly-Arg-p-nitroanilide hydrochloride. […] Final DMSO concentration was 4.3%. Purified activated human Factor X was diluted into assay buffer to a concentration of 300 nM. Final reagent concentrations were: [FXa]=10 nM, [N-benzoyl-Ile-Glu-Gly-Arg-p-nitroanilide hydrochloride]=51 mM.

A further test addresses T4, bovine α-chymotrypsin (Bos taurus, UniProt P00766).
T4 construct: Bovine α-chymotrypsin (Sigma C4129); purchased Sigma C4129
The experiment in a line: In vitro inhibition of purified enzymes: chymotrypsin, hydrolysis of N-succinyl-Ala-Ala-Pro-Phe-p-nitroanilide. To be noted: read-out: % Inhibition Chymo.
Source text: as §1, §2, §3, §4
Chymotrypsin: Chymotrypsin activity was assessed as the ability to hydrolyze N-succinyl-Ala-Ala-Pro-Phe-p-nitroanilide. […] Final DMSO concentration was 4.3%. Purified bovine chymotrypsin was diluted into assay buffer to a concentration of 81 nM. Final reagent concentrations were: [Chymotrypsin]=2.7 nM, [N-succinyl-Ala-Ala-Pro-Phe-p-nitroanilide]=14 mM.

For another test, the target named is T5, human α-thrombin (Homo sapiens, UniProt P00734).
T5 construct: Purified human a-thrombin was diluted into assay buffer; purchased Enzyme Research Laboratories (South Bend)
The test can be described thus: In vitro inhibition of purified enzymes: thrombin, hydrolysis of N-succinyl-Ala-Ala-Pro-Arg-p-nitroanilide. The conditions noted are these: 37° C., pH 7.5.
Source text: Reagents: All buffer salts were obtained from Sigma Chemical Company (St. Louis, Mo.), and were of the highest purity available. The enzyme substrates, N-benzoyl-Phe-Val-Arg-p-nitroaniide (Sigma B7632) N-benzoyl-Ile-Glu-Gly-Arg-p-nitroanilide hydrochloride (Sigma B2291), N-p-Tosyl-Gly-Pro-Lys-p-nitroanilide (Sigma T6140), N-succinyl-Ala-Ala-Pro-Phe-p-nitroanilide (Sigma S7388) and N-CBZ-Val-Gly-Arg-p-nitroanilide (Sigma C7271) were obtained from Sigma.
as §2
Ki Determinations: All assays are based on the ability of the test compound to inhibit the enzyme catalyzed hydrolysis of a peptide p-nitroanilide substrate. […] The final concentrations for each of the substrates is listed below. In general, substrate concentrations are lower than the experimentally determined value for Km. Test compounds are prepared as a 1.0 mg/ml solution in DMSO. Dilutions are prepared in DMSO yielding 8 final concentrations encompassing a 200 fold concentration range. Enzyme solutions are prepared at the concentrations listed below in assay buffer.
as §4, with “Reactions” for “In a typical Ki determination, into each well of a 96 well plate is pipetted 280 mL of substrate solution, 10 mL of test compound solution, and the plate allowed to thermally equilibrate at 37° C. in a Molecular Devices plate reader for>15 minutes. Reactions”
Thrombin: Thrombin activity was assessed as the ability to hydrolyze the substrate N-succinyl-Ala-Ala-Pro-Arg-p-nitroanilide. […] Final reagent concentrations were: [thrombin]=0.5 nM, [substrate N-succinyl-Ala-Ala-Pro-Arg-p-nitroanilide]=32 mM.

Another test concerns the target T6, human plasmin (Homo sapiens, UniProt P00747).
T6 construct: Purified human plasmin was diluted into assay buffer; purchased Enzyme Research Laboratories (South Bend)
The test can be described thus: In vitro inhibition of purified enzymes: plasmin, hydrolysis of N-p-Tosyl-Gly-Pro-Lys-p-nitroanilide.
Source text: as §1, §2, §3, §4
Plasmin: Plasmin activity was assessed as the ability to hydrolyze the N-p-Tosyl-Gly-Pro-Lys-p-nitroanilide. Substrate solutions were prepared at a concentration of 37 mM (37 mM<<Km=243 mM) in assay buffer. Final DMSO concentration was 4.3%. Purified human plasmin was diluted into assay buffer to a concentration of 240 nM. Final reagent concentrations were: [Plasmin]=8 nM, [N-p-Tosyl-Gly-Pro-Lys-p-nitroanilide]=37 mM.

Structures can show the parent of a compound that is named as a salt.

A word on the inhibition: it is the share of the control response that was lost under treatment. The Ki is a dissociation constant, usually derived from enzyme kinetics or from competition with a known ligand. Low values mean a stronger hold on the target, high ones a looser hold on the target.

T6 sequence (P00747 581-810 limits assumed): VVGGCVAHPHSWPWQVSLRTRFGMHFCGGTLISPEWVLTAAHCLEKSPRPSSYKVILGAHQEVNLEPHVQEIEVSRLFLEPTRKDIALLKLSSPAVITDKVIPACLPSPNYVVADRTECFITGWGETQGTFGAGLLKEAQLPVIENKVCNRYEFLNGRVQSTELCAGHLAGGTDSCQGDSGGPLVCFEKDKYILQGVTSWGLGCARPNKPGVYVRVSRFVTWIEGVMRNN
T6 sequence (P00747 97-580 partner limits assumed): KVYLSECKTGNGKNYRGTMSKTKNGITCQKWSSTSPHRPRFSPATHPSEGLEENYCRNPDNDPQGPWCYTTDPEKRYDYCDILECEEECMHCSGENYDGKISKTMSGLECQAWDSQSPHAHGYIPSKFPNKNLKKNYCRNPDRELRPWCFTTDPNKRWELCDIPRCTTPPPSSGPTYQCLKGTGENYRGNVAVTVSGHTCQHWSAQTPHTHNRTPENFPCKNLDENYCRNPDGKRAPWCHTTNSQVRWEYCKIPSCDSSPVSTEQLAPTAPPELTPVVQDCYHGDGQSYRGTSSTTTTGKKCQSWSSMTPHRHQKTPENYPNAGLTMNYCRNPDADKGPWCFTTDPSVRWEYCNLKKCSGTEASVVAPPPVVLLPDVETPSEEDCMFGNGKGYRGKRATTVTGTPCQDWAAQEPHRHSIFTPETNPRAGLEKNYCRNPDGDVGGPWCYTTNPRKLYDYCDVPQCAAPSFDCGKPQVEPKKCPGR
T3 sequence (P00742 235-488 limits assumed): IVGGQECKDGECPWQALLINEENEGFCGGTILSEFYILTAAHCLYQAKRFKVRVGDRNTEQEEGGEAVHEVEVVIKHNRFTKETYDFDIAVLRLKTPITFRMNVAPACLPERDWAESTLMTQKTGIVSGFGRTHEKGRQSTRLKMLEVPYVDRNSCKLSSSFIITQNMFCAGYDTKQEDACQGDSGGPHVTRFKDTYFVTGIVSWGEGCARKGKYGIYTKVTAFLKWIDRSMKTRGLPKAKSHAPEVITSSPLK
T3 sequence (P00742 41-179 partner limits assumed): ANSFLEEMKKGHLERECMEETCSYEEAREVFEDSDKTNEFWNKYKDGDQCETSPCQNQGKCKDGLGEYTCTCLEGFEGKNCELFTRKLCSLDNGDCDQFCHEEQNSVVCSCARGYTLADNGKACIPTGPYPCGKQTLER

As to `Cc1ccc(NS(=O)(=O)c2ccc(I)cc2)c(=O)n1CC(=O)NCCONC(=N)N` [Example 38, 3-(4-Iodophenylsulfonyl)amino-6-methyl-1-[(2-guanidinooxyethyl)aminocarbonylmethyl]-2-pyridinone trifluoroacetate], the inhibition at 20 µM on human leukocyte elastase (at 20,000 nM), against bovine trypsin (at 20,000 nM), on bovine α-chymotrypsin (at 20,000 nM) and on human plasmin (at 20,000 nM) was 0% each time. Also, the inhibition constant (Ki) at human factor Xa came to 0.42 µM; on human α-thrombin, 0.051 µM.
Take `Cc1ccc(NS(=O)(=O)c2ccccc2[N+](=O)[O-])c(=O)n1CC(=O)NCCONC(=N)N` [Example 71, 3-(2-Nitrophenylsulfonyl)amino-6-methyl-1-[(2-guanidinooxyethyl)aminocarbonylmethyl]-2-pyridinone trifluoroacetate]: the inhibition at 12 µM at human leukocyte elastase (at 12,000 nM), against bovine trypsin (at 12,000 nM), at bovine α-chymotrypsin (at 12,000 nM) and against human plasmin (at 12,000 nM) was 0% throughout. The inhibition constant Ki amounted to 8.7 µM on human factor Xa and 0.58 µM at human α-thrombin.
As for `Cc1ccc(NS(=O)(=O)c2ccc3cc(Cl)ccc3c2)c(=O)n1CC(=O)NCCONC(=N)N` [Example 85, 3-(6-Chloronaphthalene-2-sulfonyl)amino-6-methyl-1-[(2-guanidinooxyethyl)aminocarbonylmethyl]-2-pyridinone trifluoroacetate], the inhibition at 18 µM against human leukocyte elastase (at 18,000 nM), on bovine α-chymotrypsin (at 18,000 nM) and against human plasmin (at 18,000 nM) was 0% throughout. For the same molecule, the Ki at bovine trypsin (37° C., pH 7.5) was 1.6 µM; at human factor Xa, 1.3 µM; at human α-thrombin it was 0.29 µM.

(Values after patent US6350764B2, “Heteroaryl aminoguanidines and alkoxyguanidines and their use as protease inhibitors” (3-Dimensional Pharmaceuticals, Inc., priority 1997, dated 2002).)
